Results: paper PMC6155403, “Camellia sinensis L. Extract and Its Potential Beneficial Effects in Antioxidant, Anti-Inflammatory, Anti-Hepatotoxic, and Anti-Tyrosinase Activities” (Molecules : A Journal of Synthetic Chemistry and Natural …, 2017)

Tests used:
[1] = DPPH free radical scavenging assay; conditions: 30 min, room temperature (30 °C), 515 nm
Method: The DPPH method [36] was used to determine the free radical-scavenging potential of each sample. The test sample (0.1 mL) was added to 3.9 mL of DPPH solution (6 × 10^−5 M). The absorbance was measured at 515 nm after 30 min of the reaction at room temperature (30 °C). The antiradical activity was calculated as a percentage of DPPH decolouration versus a control. The results were expressed as the concentration of the FTE that scavenged 50% of the free radicals from the reaction mixture (SC50). The percent DPPH scavenging effect was calculated by using following equation [37]: (1) DPPHscavengingeffect(%)orPercentinhibition=[Ao - At/Ao]×100 where Ao is the absorbance of the control reaction and At is the absorbance in the presence of a test or standard sample. AsA, BHA, BHT, and tocopherol were used as positive references.

[2] = target: mushroom tyrosinase; experiment: Mushroom tyrosinase inhibition in vitro (dopachrome method, L-DOPA oxidation); assay type: biochemical; conditions: mean ± SEM; L-DOPA substrate, pH 6.8, 25 °C
Method: Briefly, 120 µL of 20 mM phosphate buffer (pH 6.8), 40 µL of 48 units/mL mushroom tyrosinase, and 20 µL of various sample concentrations with or without enzyme were placed in the wells of a 96-well microplate. After pre-incubation at 25 °C for 10 min, 20 µL of 0.85 mM L-DOPA was added, and the plate was subsequently incubated at 25 °C for 20 min. The amount of dopachrome was measured at 492 nm in an ELISA plate reader (Anthos 2010, Anthos Labtec Instruments GmbH, Wals, Austria). The extent of inhibition by the test samples was expressed as the percentage of concentration necessary to achieve 50% inhibition (IC50).

[3] = Chelation of ferrous metal ions (ferrozine-Fe2+ complex formation); conditions: mean ± SD; 10 min, 30 °C, 562 nm
Method: The method of Gülçin et al. was followed. The reaction mixture, containing different concentrations of each sample, FeCl2 (2 mM), and ferrozine (1.5 mM), was adjusted to a total volume of 4 mL with absolute methanol, shaken well, and incubated for 10 min at room temperature (30 °C). The absorbance of the mixture was measured at 562 nm against a blank. EDTA was used as the positive reference. The percent inhibition of ferrozine-Fe^2+ complex formation was calculated against a control. The results were expressed as the concentration of the FTE that chelated 50% of metal ions (IC50).

Question: Which “SC50 (50% inhibition of the DPPH scavenging effect)” value [1] does the source give for Cc1c(C)c2c(c(C)c1O)CCC(C)(CCCC(C)CCCC(C)CCCC(C)C)O2 (racemic) [Tocopherol, DL-α-tocopherol] here?
Answer: Its value is 0.196 ± 0.005 moles of tested compound/mole DPPH.

Question: For O=C1O[C@H]([C@@H](O)CO)C(O)=C1O [AsA, ascorbic acid], which “SC50 (50% inhibition of the DPPH scavenging effect)” value [1] is on record?
Answer: The value was 0.209 ± 0.006 moles of tested compound/mole DPPH.

Question: With COc1ccc(O)c(C(C)(C)C)c1 [BHA, butylated hydroxyanisole] as the compound, how does the “SC50 (50% inhibition of the DPPH scavenging effect)” value [1] read?
Answer: The value was 0.184 ± 0.011 moles of tested compound/mole DPPH.

Question: Which “SC50 (50% inhibition of the DPPH scavenging effect)” value [1] does the source give for Cc1cc(C(C)(C)C)c(O)c(C(C)(C)C)c1 [BHT, butylated hydroxytoluene] here?
Answer: The value was 0.224 ± 0.005 moles of tested compound/mole DPPH.

Question: With O=C(O[C@@H]1Cc2c(O)cc(O)cc2O[C@@H]1c1ccc(O)c(O)c1)c1cc(O)c(O)c(O)c1 [ECG, (−)-epicatechin-3-gallate] as the compound, how does the “Anti-tyrosinase IC50” value [2] read?
Answer: The value was 76.50 ± 1.50 µg/mL.

Question: For O=C(O)CN(CCN(CC(=O)O)CC(=O)O)CC(=O)O [EDTA, ethylenediaminetetraacetic acid], which “Iron(II)-chelating IC50” value [3] is on record?
Answer: The value was 10 ± 0 µg/mL.

Question: For Oc1cc(O)c2c(c1)O[C@H](c1cc(O)c(O)c(O)c1)[C@H](O)C2 [EGC, (−)-epigallocatechin], which “Anti-tyrosinase IC50” value [2] is on record?
Answer: The value was 110.00 ± 0.00 µg/mL.

Question: Which “Anti-tyrosinase IC50” value [2] does the source give for O=C(O[C@@H]1Cc2c(O)cc(O)cc2O[C@@H]1c1cc(O)c(O)c(O)c1)c1cc(O)c(O)c(O)c1 [EGCG, (−)-epigallocatechin-3-gallate] here?
Answer: Its value is 234.00 ± 6.00 µg/mL.
